Source: patent US20240279265A1, “CRYSTAL FORMS OF GLUCOSAMINE DERIVATIVE, AND PREPARATION METHOD THEREFOR AND USE THEREOF” (RISEN (SUZHOU) PHARMA TECH CO., LTD., priority 2021, published 2024)

Assays:
Format in all cases: physicochemical
[1] = Dynamic vapor sorption (DVS); details: for Mass change (%) - ref, Delay: desorption minus sorption; for DVS weight gain at an RH of 80%: RH 80%, 25±1° C.
Method: DVS: Samples were analyzed using an Intrinsic DVS ([…] UK). The amount of test sample was about 20-30 mg. The temperature of the test chamber was controlled between 25±1° C., the relative humidity was increased from 0% to 90% and then decreased to 0% at a rate of 10%/h, and the quality data was recorded every 20 s.

[2] = Thermogravimetric analysis (TGA); details: heated at 10° C./min under nitrogen
Method: TGA: Samples were analyzed using a TA Instruments TGA Discovery 550. The sample were placed in a tared aluminum tray and automatically weighed, and then the samples were brought to the specified temperatures at a rate of 10° C./min under the protection of nitrogen. In the present invention, the TGA graphs of the above three samples are illustrated in the form of overlay, as shown in FIG. 5.

[3] = Solubility test in water; details: purified water, room temperature, stirred 2 hours
Method: The excess crystals were dissolved in an amount of purified water in a 4 ml vial at room temperature. The mass of an empty watch glass was recorded as m1.
The suspension was stirred for 2 hours and then filtered through a […] into an empty watch glass, the mass m2 at this point was recorded for this watch glass, and the remaining solid was used for XRPD analysis.
The watch glass containing the filtrate was dried in an oven at 40° C. After drying, the mass m3 was recorded and the solubility data of the substrate could be calculated. The masses of the watch glass as well as the amounts of solid and solution are listed in Table 6, and the experimental results are shown in Table 7 and FIG. 12.

[4] = Stability test (crystalline form by XRPD); details: one week
Method: 10 mg of the solid was placed into a 2 ml glass vial and the vial was transferred to a stability chamber. The experimental conditions were 25° C./92.5% RH, 40° C./75% RH, 60° C., and light, respectively.

[5] = Solubility in buffer of crystalline form I
Source text: The solubility of crystalline form I of the present invention was investigated at room temperature in buffers at pH 1.2, 4.5 and 6.8. The procedure was consistent with that of the solubility test in water. The masses of the watch glass as well as the amounts of solid and solution are listed in Table 8, and the experimental results are shown in Table 9.

Row | Mass change (%) - ref, Desorption ([1]; Cycle 1, objective RH 0.0%) | Mass change (%) - ref, Sorption ([1]; Cycle 1, objective RH 0.0%) | Mass change (%) - ref, Desorption ([1]; Cycle 1, objective RH 10.0%) | Mass change (%) - ref, Sorption ([1]; Cycle 1, objective RH 10.0%) | Mass change (%) - ref, Delay ([1]; Cycle 1, objective RH 10.0%) | Mass change (%) - ref, Desorption ([1]; Cycle 1, objective RH 20.0%) | Mass change (%) - ref, Sorption ([1]; Cycle 1, objective RH 20.0%) | Mass change (%) - ref, Delay ([1]; Cycle 1, objective RH 20.0%) | Mass change (%) - ref, Desorption ([1]; Cycle 1, objective RH 30.0%) | Mass change (%) - ref, Sorption ([1]; Cycle 1, objective RH 30.0%) | Mass change (%) - ref, Delay ([1]; Cycle 1, objective RH 30.0%) | Mass change (%) - ref, Desorption ([1]; Cycle 1, objective RH 40.0%) | Mass change (%) - ref, Sorption ([1]; Cycle 1, objective RH 40.0%) | Mass change (%) - ref, Delay ([1]; Cycle 1, objective RH 40.0%) | Mass change (%) - ref, Desorption ([1]; Cycle 1, objective RH 50.0%) | Mass change (%) - ref, Sorption ([1]; Cycle 1, objective RH 50.0%) | Mass change (%) - ref, Delay ([1]; Cycle 1, objective RH 50.0%) | DVS weight gain at an RH of 80% [1] | TGA weight loss (wt %) [2] | Solubility in water [3] | Structure (SMILES) | further results
1 | 0.023% | 0.000% | 0.552% | 0.086% | 0.466% | 0.659% | 0.165% | 0.494% | 0.777% | 0.257% | 0.520% | 0.913% | 0.324% | 0.590% | 0.968% | 0.368% | 0.600% | 0.869% | None | 9.08 mg/g | CCCC(=O)N[C@H]1C(O)O[C@H](COC(=O)CCC)[C@@H](OC(=O)CCC)[C@@H]1O (stereo partly drawn) [Crystalline Form II, 2-N-4,6-di-O-tributyryl-D-glucosamine] | Mass change (%) - ref, Desorption ([1]; Cycle 1, objective RH 60.0%): 1.080%; Mass change (%) - ref, Sorption ([1]; Cycle 1, objective RH 60.0%): 0.457%; Mass change (%) - ref, Delay ([1]; Cycle 1, objective RH 60.0%): 0.623%; Solubility in water ([3]; listed as crystalline form II): 9.02 mg/g
2 |  |  |  |  |  |  |  |  |  |  |  |  |  |  |  |  |  | 2.440% | 0.966 wt % | 8.12 mg/g | CCCC(=O)N[C@H]1C(O)O[C@H](COC(=O)CCC)[C@@H](OC(=O)CCC)[C@@H]1O (stereo partly drawn) [API, 2-N-4,6-di-O-tributyryl-D-glucosamine] | 
3 | −0.022% | 0.001% | 0.082% | 0.092% | −0.010% | 0.160% | 0.175% | −0.015% | 0.270% | 0.276% | −0.006% | 0.409% | 0.417% | −0.007% | 0.498% | 0.502% | −0.003% | 1.037% | 0.344 wt % | 9.02 mg/g | CCCC(=O)N[C@H]1C(O)O[C@H](COC(=O)CCC)[C@@H](OC(=O)CCC)[C@@H]1O (stereo partly drawn) [Crystalline Form I, 2-N-4,6-di-O-tributyryl-D-glucosamine] | Mass change (%) - ref, Desorption ([1]; Cycle 1, objective RH 60.0%): 0.627%; Mass change (%) - ref, Sorption ([1]; Cycle 1, objective RH 60.0%): 0.626%; Mass change (%) - ref, Delay ([1]; Cycle 1, objective RH 60.0%): 0.001%; Mass change (%) - ref, Desorption ([1]; Cycle 1, objective RH 70.0%): 0.789%; Mass change (%) - ref, Sorption ([1]; Cycle 1, objective RH 70.0%): 0.800%; Mass change (%) - ref, Delay ([1]; Cycle 1, objective RH 70.0%): −0.011%; Mass change (%) - ref, Desorption ([1]; Cycle 1, objective RH 80.0%): 1.031%; Mass change (%) - ref, Sorption ([1]; Cycle 1, objective RH 80.0%): 1.037%; Mass change (%) - ref, Delay ([1]; Cycle 1, objective RH 80.0%): −0.006%; Mass change (%) - ref, Desorption ([1]; Cycle 1, objective RH 90.0%): 1.662%; Mass change (%) - ref, Sorption ([1]; Cycle 1, objective RH 90.0%): 1.662%; Whether the crystalline form is changed ([4]; 25° C., 92.5% RH): No; Whether the crystalline form is changed ([4]; 40° C., 75% RH): No; Whether the crystalline form is changed ([4]; 60° C.): No; Whether the crystalline form is changed ([4]; Light): No; Solubility in water ([3]; listed as crystalline form I): 9.08 mg/g; Solubility in buffer ([5]; buffer pH 1.2, room temperature): 4.08 mg/g; Solubility in buffer ([5]; buffer pH 4.5, room temperature): 6.58 mg/g; Solubility in buffer ([5]; buffer pH 6.8, room temperature): 10.02 mg/g
